Columns and labels:
[1] = test system: large bowel cancer cell line DLD; experiment: tests as in Examples 1, 2 and 3; assay type: cell-based
Procedure: (§1) The tests were carried out on a breast cancer cell line (MCF-7, BSMZ), a large bowel cancer cell line (DLD, LOVO), a thyroid gland cancer cell line (SW1736), and a pancreas cancer cell line (PA-1) in the same ways as in Examples 1, 2, and 3. As the result, the cell mortality began with about 1.5 mg/ml of BA to increase in proportion to the BA concentration, same as adhesiveness thereof.

[2] = test system: breast cancer cell line MCF-7; experiment: tests as in Examples 1, 2 and 3; assay type: cell-based
Procedure: as §1

[3] = test system: breast cancer cell line BSMZ; experiment: tests as in Examples 1, 2 and 3; assay type: cell-based
Procedure: as §1

[4] = test system: large bowel cancer cell line LOVO; experiment: tests as in Examples 1, 2 and 3; assay type: cell-based
Procedure: as §1

[5] = test system: thyroid gland cancer cell line SW1736; experiment: tests as in Examples 1, 2 and 3; assay type: cell-based
Procedure: as §1

[6] = test system: pancreas cancer cell line PA-1; experiment: tests as in Examples 1, 2 and 3; assay type: cell-based
Procedure: as §1

[7] = test system: stomach cancer cell line (STKM); experiment: cell adhesiveness test by the calorimetric assay; assay type: cell-based; details: 37° C. for 48 hrs, OD 600 nm, FIG. 1
Description: The calorimetric assay as described in the examples below can be employed for assaying the adhesiveness of a cell, and the thymidine incorporate assay can be employed for assaying the mortality of a cell. These two assays are general methods for determining the behavior of a tumor cell. For the colorimetric assay, see Enhancer sequences of DF3 gene regulate expression of the herpes simplex virus thymidine kinase gene and confer sensitivity of human breast cancer cell to ganciclovir: Manome Y, Abe M, Hagen F. M, Fine A. H, and Kufe W. D, Cancer Research 54:5408-5413, 1994. For the thymidine incorporate assay, see Meneki Jikken Sousa-ho II (edited by S. Uda, S. Konda, Y. Honsho, T, Hamaoka, 773-774, Nanko-do, 1995).
(§2) To 1×10^6 cells of a stomach cancer cell line (STKM), BA was added by such proportional concentrations as 1, 1.5, 2.0, 2.5 and 5 mg/ml. An equal amount of the physiological saline was added to prepare a control sample. All the samples were incubated at 37° C. for 48 hrs. The shape of the cell was studied through an inverted microscope. The adhesiveness and the mortality of the cell were measured by the calorimetric assay and the thymidine incorporate assay.
(1) The Cell Adhesiveness Test by the Calorimetric Assay:
100% gulutalaldehyde was added to each of samples by a ¼ the medium amount (250 μl), then left to stand at a room temperature for 15 min. […]

[8] = test system: stomach cancer cell line (STKM); experiment: cell shape by inverted microscope in vitro; assay type: cell-based; details: BA 2.5 mg/ml, 37° C. for 48 hrs, FIG. 3
Procedure: as §2
One ml of BA of 2.5 mg/ml was added to 1×10^6 cells followed by incubating at 37° C. for 48 hrs to get the image as shown in FIG. 3. The equal amount of physiological saline was similarly added, followed by incubating in the same way to get the control. […] The nucleus also got remarkably blackened. The above result confirms that a stomach cancer cell arrived at death in vitro.

Sarmonella typhii = details: on Sarmonella typhii; cited from earlier work
Caspase-3 = Caspase-3 activity assay; assay type: cell-based; details: 2 ml of BA of 2.5 mg/ml
Description: (§3) The DNA Laddering assay, the TUNEL assay and the Caspase assay as described in the examples below are general methods for determining whether a cell arrives at death through an apoptosis route or not. For the DNA Laddering assay, see Shin Apoptosis Jikken-ho (edited by K. Tsujimoto, S. Tone, T. Yamada, 59-66, Yodosya, 1999). For the TUNEL assay, see Shin Apoptosis Jikken-ho (edited by K. Tsujimoto, S. Tone, T. Yamada, 67-74, Yodosya, 1999). For the Caspase assay, see Shin Apoptosis Jikken-ho (edited by K. Tsujimoto, S. Tone, T. Yamada, 198-200, Yodosya, 1999).
(§4) To 1.5×10^6 cells, 2 ml of BA of 2.5 mg/ml for a test sample, the equal amount of physiological saline for a negative control sample, and Arac 1×10^−5M (Kirosaito, Nippon Shinyaku) for a positive control sample were added respectively, each of which was followed by incubating at 37° C. for 48 hrs to recover the cells. Then, the CPP32/Caspase-3, -8 Colorimetric Protease Assay kit (MBL Co.) was applied to the samples. The application was briefly as follows: • 1. […]

[9] = in body; cited from earlier work
[10] = test system: STKM (a stomach cancer cell line); experiment: DNA Laddering assay; assay type: cell-based; details: 2 ml of BA of 2.5 mg/ml, 48 hrs, FIG. 6
Description: as §3
(§5) For a cell group capable of being guided to the cell mortality, it was determined that through which route, apoptosis or necrosis, the cell arrived at death. Namely, BA was added to the cell at a certain concentration or more necessary to guide to the cell mortality, and the cell was collected after confirmation of the change in shape. Then, the DNA Laddering assay with gel electrophoresis to investigate the DNA fragmentation and the TUNEL assay with the cell dyeing were carried out.
2 ml of BA of 2.5 mg/ml was added to 1.5×10^6 cells (STKM) followed by incubating at 37° C. for 48 hrs to collect the cells. The collected cells were centrifuged and added in 100 μl of lysis buffer (10 mM EDTA, 50 mM Tris-HCl, pH 8.0, 0.5% SDS, 0.5 mg/ml Proteinase K), followed by incubating at […] for 3 hrs. […]

STKM cells = experiment: TUNEL assay; assay type: cell-based; details: 2 ml of BA of 2.5 mg/ml, 48 hrs, FIG. 7
Description: as §3, §5
2 ml of BA of 2.5 mg/ml was added to 1.5×10^5 cells (STKM) on a slide glass, followed by incubating at 37° C. for 48 hrs and fixing with 1% paraformaldehyde in PBS at a room temperature for 10 min. For a control, the equal amount of physiological saline was added. […]

Caspase-8 = Caspase-8 activity assay; assay type: cell-based; details: 2 ml of BA of 2.5 mg/ml, 48 hrs
Description: as §3, §4

[11] = test system: stomach cancer cell line (STKM) tumor; experiment: antitumor effect on STKM tumor in nude mouse in vivo
Procedure: 1×10^8 cells of a stomach cancer cell line (STKM) were subcutaneously injected in the back of a nude mouse. When a tumor grew to have a diameter of 5 mm or more after 8 weeks, BA was administrated to the tumor or around the tumor by 4 mg/0.5 ml twice a week for 4 weeks. For a control, 0.5 ml of physiological saline was locally injected to the tumor. The tumor diameter was measured. The tumor tissue was taken out and subjected to the H-E dyeing to observe with a microscope.
A stomach cancer cell line (STKM) was implanted in a living body. When a tumor grew to have a diameter of 5 mm or more, BA was administrated by 4 mg/0.5 ml twice a week for 4 weeks. […] The tumor diameter decreased to the ½ or less after the 32 mg administration (4 weeks).
FIGS. 4 and 5 show the images obtained by extracting the tumor after 4 weeks of administration, fixing with 10% formalin, slicing to 3 μm pieces and H-E dyeing. […] The above result confirms that the stomach cancer cell arrived at death in vivo.

[12] = test system: umbilical cord cell line (Huvec); experiment: colorimetric assay on a normal cell; assay type: cell-based; details: FIG. 10
Procedure: (§6) 100% gulutalaldehyde was added to each of samples by a ¼ the medium amount (250 μl), then left to stand at a room temperature for 15 min. After washing, 250 μl of 0.05% Methylene Blue in PBS was added and then left to stand at a room temperature for 15 min. After washing, 250 μl of 0.33N HCl was added, followed by leaving to stand at a room temperature for 15 min and measuring the OD (600 nm).
(§7) In order to confirm that the BA administration effects specifically a cancer cell to arrive at death, the colorimetric assay was carried out on a normal cell, that is, an umbilical cord cell line (Huvec) and a lung cell line (WI38), in the same way as in Example 1. The stomach cancer cell line (STKM) was used for a control.

lung cell line (WI38) = experiment: colorimetric assay on a normal cell; assay type: cell-based; details: FIG. 10
Procedure: as §6, §7

Escherichia coli = details: on Escherichia coli; cited from earlier work
Staphylococcus aureus = details: on Staphylococcus aureus; cited from earlier work

For `OCc1ccccc1` [BA, Benzyl alcohol], the “BA concentration at which cell mortality begins to increase (same as adhesiveness)” value [1] was “about 1.5 mg/ml”, the “route of cell death” value [1] was “did not arrive at death through an apoptosis route, but through a necrosis one” and the “BA concentration at which cell mortality begins to increase (same as adhesiveness)” value [2] was “about 1.5 mg/ml”. For the same compound, the “route of cell death” value [2] was “did not arrive at death through an apoptosis route, but through a necrosis one”, the “BA concentration at which cell mortality begins to increase (same as adhesiveness)” value [3] was “about 1.5 mg/ml” and the “route of cell death” value [3] was “did not arrive at death through an apoptosis route, but through a necrosis one”. The “BA concentration at which cell mortality begins to increase (same as adhesiveness)” value [4] was “about 1.5 mg/ml”, the “route of cell death” value [4] was “did not arrive at death through an apoptosis route, but through a necrosis one” and the “BA concentration at which cell mortality begins to increase (same as adhesiveness)” value [5] was “about 1.5 mg/ml”. For the same compound, the “route of cell death” value [5] was “did not arrive at death through an apoptosis route, but through a necrosis one”, the “BA concentration at which cell mortality begins to increase (same as adhesiveness)” value [6] was “about 1.5 mg/ml” and the “route of cell death” value [6] was “did not arrive at death through an apoptosis route, but through a necrosis one”. For the same compound, the “BA concentration at which cell adhesiveness begins to decrease” value [7] was “about 1.5 mg/ml”, the cell shape [8] was “cell shape changed from a spindle to a circle and got swollen” and the phenol coefficient (Sarmonella typhii) was 0.4. The Caspase-3 activity (Caspase-3; 37° C. for 48 hrs, FIG. 8) was 45.4 RFI/well/Hr, the “Caspase-3 activity compared with positive control (Arac)” value (Caspase-3; 48 hrs, p<0.001) was “significantly lower than that of the positive control” and the metabolism and excretion [9] was “converted to benzoic acid in body and excreted as hippuric acid”. For the same compound, the DNA laddering [10] was “No laddering was recognized”, the “Digoxigenin dyeing in the nucleus (TUNEL)” value (STKM cells) was “no Digoxigenin dyeing image in the nucleus” and the “Caspase-8 activity compared with positive control (Arac)” value (Caspase-8; FIG. 9) was “significantly lower than that of the positive control”. The “Caspase activity compared with negative control (physiological saline)” value (Caspase-8; FIGS. 8, 9) was “almost equal to that of the negative control”, the “tumor diameter compared with the control” value ([11]; nude mouse, 4 mg/0.5 ml twice a week to or around the tumor, 16 mg administration (2 weeks)) was “contracted in diameter compared with the control” and the tumor diameter decrease ([11]; nude mouse, 4 mg/0.5 ml twice a week to or around the tumor, after the 32 mg administration (4 weeks)) was “½”. The “H-E dyed tumor tissue image” value ([11]; tumor extracted after 4 weeks of administration, FIG. 5) was “cells were scattered sparsely with the swollen cytoplasm, appearance of the inclusion bodies and contraction of the nucleus”, the “cell death effect compared to STKM” value [12] was “lower effect compared to the STKM” and the “resistance to BA compared with Huvec” value (lung cell line (WI38)) was “more resistant to BA than the Huvec”. The “cell death effect compared to STKM” value (lung cell line (WI38); colorimetric assay) was “lower effect compared to the STKM”, the phenol coefficient (Escherichia coli) was 0.6 and the phenol coefficient (Staphylococcus aureus) was 0.5.

Source: patent publication US20050075315A1, “Antitumor agent” (FUSO PHARMACEUTICAL INDUSTRIES, LTD, priority 2002, published 2005)
